# Test results published in patent publication US9278962B2 (Cytokinetics, Inc., priority 2011, dated 2016).
# Tested on: rabbit skeletal myofibrils (approximately 90% fast fibers)
# Assay: Activation of fast skeletal myofibrils (PUMA coupled-enzyme ATPase assay, AC1.4)
# Type: biochemical
# Conditions: Table 2; concentration at which the compound increased enzymatic activity by 40%; calcium at pCa25
row,Mean AC1.4,SMILES
1,D (D=>20 uM),"Fc1ccc(Cc2nsc(NCCc3ccccc3)n2)cc1 [{3-[(4-fluorophenyl)methyl](1,2,4-thiadiazol-5-yl)}(2-phenylethyl)amine]"
2,C (C=10-20 uM),"COc1cccc(Cc2nsc(NCCc3ccc(Cl)cc3Cl)n2)c1 [[2-(2,4-dichlorophenyl)ethyl]{3-[(3-methoxyphenyl)methyl](1,2,4-thiadiazol-5-yl)}amine]"
3,D (D=>20 uM),"NS(=O)(=O)c1ccc(CCNc2nc(Cc3ccc(F)cc3)ns2)cc1 [4-[2-({3-[(4-fluorophenyl)methyl]-1,2,4-thiadiazol-5-yl}amino)ethyl]benzenesulfonamide]"
4,A (A=<1 uM),"CC(C)(CNc1nc(-c2ccc(C(N)=O)c(F)c2)ns1)c1ccc(F)cc1 [2-fluoro-4-(5-{[2-(4-fluorophenyl)-2-methylpropyl]amino}(1,2,4-thiadiazol-3-yl))benzamide]"
5,D (D=>20 uM),"Fc1ccc(Cc2nsc(NCCc3cccnc3)n2)cc1 [{3-[(4-fluorophenyl)methyl](1,2,4-thiadiazol-5-yl)}(2-(3-pyridyl)ethyl)amine]"
6,B (B=1-10 uM),"CC(C)Cc1nsc(NCC(C)(C)c2ccc(Cl)cc2)n1 [[2-(4-chlorophenyl)-2-methylpropyl][3-(2-methylpropyl)(1,2,4-thiadiazol-5-yl)]amine]"
7,D (D=>20 uM),"CC(C)(C(=O)Nc1nc(-c2ccccc2)ns1)c1ccc(F)cc1 [2-(4-fluorophenyl)-2-methyl-N-(3-phenyl(1,2,4-thiadiazol-5-yl))propanamide]"
8,D (D=>20 uM),"CC(C)(CNc1nc(CCC(=O)N2CC[C@@H](O)C2)ns1)c1ccc(F)cc1 [1-((3R)-3-hydroxypyrrolidinyl)-3-(5-{[2-(4-fluorophenyl)-2-methylpropyl]amino}(1,2,4-thiadiazol-3-yl))propan-1-one]"
9,D (D=>20 uM),"COc1cccc(C(C)c2nsc(N(C)CC(C)(C)c3ccc(F)cc3)n2)c1 (stereo not shown) [[2-(4-fluorophenyl)-2-methylpropyl]{3-[(3-methoxyphenyl)ethyl](1,2,4-thiadiazol-5-yl)}methylamine]"
10,B (B=1-10 uM),"CC(C)(CNc1nc(-c2ccc(O)nc2)ns1)c1ccc(F)cc1 [5-(5-{[2-(4-fluorophenyl)-2-methylpropyl]amino}-1,2,4-thiadiazol-3-yl)pyridin-2-ol]"
11,A (A=<1 uM),"CC(C)(CNc1nc(-c2ccc(C(N)=O)nc2)ns1)c1ccc(F)cc1 [5-(5-{[2-(4-fluorophenyl)-2-methylpropyl]amino}-1,2,4-thiadiazol-3-yl)pyridine-2-carboxamide]"
12,D (D=>20 uM),"NC(=O)c1cccc(-c2nsc(NCC(=O)C3CCCCN3)n2)c1 (stereo not shown) [3-{5-[(2-oxo-2-piperidylethyl)amino]-1,2,4-thiadiazol-3-yl}benzamide]"
13,B (B=1-10 uM),"CC(C)(CNc1nc(-c2cccc(C#N)c2)ns1)c1ccc(F)cc1 [3-(5-{[2-(4-fluorophenyl)-2-methylpropyl]amino}-1,2,4-thiadiazol-3-yl)benzenecarbonitrile]"
14,D (D=>20 uM),"CC(C)(CNc1nc(CN2CCCC(O)C2)ns1)c1ccc(F)cc1 (stereo not shown) [1-[(5-{[2-(4-fluorophenyl)-2-methylpropyl]amino}-1,2,4-thiadiazol-3-yl)methyl]piperidin-3-ol]"
15,D (D=>20 uM),"Fc1ccc(Cc2nsc(Nc3ccc(Cl)c(Cl)c3)n2)cc1 [(3,4-dichlorophenyl){3-[(4-fluorophenyl)methyl](1,2,4-thiadiazol-5-yl)}amine]"
16,A (A=<1 uM),"C[C@H](CNc1nc(-c2ccc(C(N)=O)cc2)ns1)c1ccc(F)cc1 [4-(5-{[(2S)-2-(4-fluorophenyl)propyl]amino}-1,2,4-thiadiazol-3-yl)benzamide]"
17,C (C=10-20 uM),"C[C@H](CNc1nc(-c2cncc(C#N)c2)ns1)c1ccc(F)cc1 [5-(5-{[(2S)-2-(4-fluorophenyl)propyl]amino}-1,2,4-thiadiazol-3-yl)pyridine-3-carbonitrile]"
18,C (C=10-20 uM),"COc1cccc(Cc2nsc(NCCc3cccc(Cl)c3)n2)c1 [[2-(3-chlorophenyl)ethyl]{3-[(3-methoxyphenyl)methyl](1,2,4-thiadiazol-5-yl)}amine]"
19,B (B=1-10 uM),"CC(C)(CNc1nc(-c2cccc(C(N)=O)c2)ns1)c1ccc(F)cn1 [3-(5-{[2-(5-fluoro(2-pyridyl))-2-methylpropyl]amino}-1,2,4-thiadiazol-3-yl)benzamide]"
20,C (C=10-20 uM),"CC(C)(CNc1nc(CCN2CC[C@H](O)C2)ns1)c1ccc(F)cc1 [(3S)-1-[2-(5-{[2-(4-fluorophenyl)-2-methylpropyl]amino}(1,2,4-thiadiazol-3-yl))ethyl]pyrrolidin-3-ol]"
21,B (B=1-10 uM),"COCCCc1nsc(NCC(C)(C)c2ccc(F)cc2)n1 [[2-(4-fluorophenyl)-2-methylpropyl][3-(3-methoxypropyl)(1,2,4-thiadiazol-5-yl)]amine]"
22,B (B=1-10 uM),"CC(C)(CNc1nc(-c2cn[nH]c2)ns1)c1ccc(F)cc1 [[2-(4-fluorophenyl)-2-methylpropyl](3-pyrazol-4-yl(1,2,4-thiadiazol-5-yl))amine]"
23,D (D=>20 uM),"CC(C)(CNc1nc(CN2CC[C@H](O)C2)ns1)c1ccc(F)cc1 [(3S)-1-[(5-{[2-(4-fluorophenyl)-2-methylpropyl]amino}(1,2,4-thiadiazol-3-yl))methyl]pyrrolidin-3-ol]"
24,D (D=>20 uM),"N#Cc1cccc(-c2nsc(NCC(=O)C3CCCCN3)n2)c1 (stereo not shown) [3-{5-[(2-oxo-2-piperidylethyl)amino]-1,2,4-thiadiazol-3-yl}benzenecarbonitrile]"
25,B (B=1-10 uM),"CC(C)(CNc1nc(-c2ccc(F)c(C#N)c2)ns1)c1ccc(F)cc1 [2-fluoro-5-(5-{[2-(4-fluorophenyl)-2-methylpropyl]amino}(1,2,4-thiadiazol-3-yl))benzenecarbonitrile]"
26,B (B=1-10 uM),"COC(=O)NCc1nsc(NCC(C)(C)c2ccc(F)cc2)n1 [N-[(5-{[2-(4-fluorophenyl)-2-methylpropyl]amino}(1,2,4-thiadiazol-3-yl))methyl]methoxycarboxamide]"
27,D (D=>20 uM),"COc1ccc(CCNc2nc(Cc3ccc(C)cc3)ns2)cc1 [[2-(4-methoxyphenyl)ethyl]{3-[(4-methylphenyl)methyl](1,2,4-thiadiazol-5-yl)}amine]"
28,C (C=10-20 uM),"CN1CCN(CCc2nsc(NCC(C)(C)c3ccc(F)cc3)n2)CC1 [[2-(4-fluorophenyl)-2-methylpropyl]{3-[2-(4-methylpiperazinyl)ethyl](1,2,4-thiadiazol-5-yl)}amine]"
29,A (A=<1 uM),"C[C@H](CNc1nc(Cc2cccc(O)c2)ns1)c1ccc(F)cc1 [3-[(5-{[(2S)-2-(4-fluorophenyl)propyl]amino}-1,2,4-thiadiazol-3-yl)methyl]phenol]"

# Same assay, conditions: Table 3; concentration at which the compound increased enzymatic activity by 40%; calcium at pCa25
row,Mean AC1.4,SMILES
1,C (C=10-20 uM),"Fc1cccnc1[C@]1(CNc2nnc(-c3ccon3)s2)C[C@@H](F)C1 [N-((3-fluoro-1-(3-fluoropyridin-2-yl)cyclobutyl)methyl)-5-(isoxazol-3-yl)-1,3,4-thiadiazol-2-amine]"
2,B (B=1-10 uM),"Cc1ccccc1-c1nnc(NCC2(c3ncccc3F)CCC2)s1 [N-((1-(3-fluoropyridin-2-yl)cyclobutyl)methyl)-5-o-tolyl-1,3,4-thiadiazol-2-amine]"
3,D (D=>20 uM),"Cn1nccc1-c1nnc(NCC2(c3ncccc3F)CCC2)s1 [N-((1-(3-fluoropyridin-2-yl)cyclobutyl)methyl)-5-(1-methyl-1H-pyrazol-5-yl)-1,3,4-thiadiazol-2-amine]"
4,A (A=<1 uM),"Fc1cccnc1C1(CNc2nnc(-c3ccccc3)s2)CCC1 [N-((1-(3-fluoropyridin-2-yl)cyclobutyl)methyl)-5-phenyl-1,3,4-thiadiazol-2-amine]"
5,A (A=<1 uM),"NC(=O)c1ccc(F)c(-c2nnc(NC[C@]3(c4ncccc4F)C[C@H](F)C3)s2)c1 [4-fluoro-3-(5-((3-fluoro-1-(3-fluoropyridin-2-yl)cyclobutyl)methylamino)-1,3,4-thiadiazol-2-yl)benzamide]"

# Same assay, conditions: Table 4; concentration at which the compound increased enzymatic activity by 40%; calcium at pCa25
row,Mean AC1.4,SMILES
1,C (C=10-20 uM),N#Cc1ccc2nc(NCC3(c4ccccn4)CCC3)sc2c1 [2-((1-(pyridin-2-yl)cyclobutyl)methylamino)benzo[d] thiazole-6-carbonitrile]
2,B (B=1-10 uM),COc1ccc(C2(CNc3nc4ccc(Cl)cc4s3)CCC2)nc1 [6-chloro-N-((1-(5-methoxypyridin-2-yl)cyclobutyl)methyl)benzo[d] thiazol-2-amine]
3,A (A=<1 uM),CC(C)(CNc1nc2c(Cl)cccc2s1)c1ccc(F)cc1 [4-chloro-N-(2-(4-fluorophenyl)-2-methylpropyl)benzo[d]thiazol-2-amine]
4,B (B=1-10 uM),CC(C)(CNc1nc2cc(C(N)=O)ccc2s1)c1ccc(F)cc1 [2-(2-(4-fluorophenyl)-2-methylpropylamino)benzo[d] thiazole-5-carboxamide]

# Same assay, conditions: Table 5; concentration at which the compound increased enzymatic activity by 40%; calcium at pCa25
row,Mean AC1.4,SMILES
1,D (D=>20 uM),"Cn1c(NC(C)(C)c2ccc(F)cc2)nnc1-c1cc(C(N)=O)ccc1F [4-fluoro-3-(5-(2-(4-fluorophenyl)propan-2-ylamino)-4-methyl-4H-1,2,4-triazol-3-yl)benzamide]"
2,D (D=>20 uM),"Cn1nc(NC2(c3ncccc3F)CCC2)nc1-c1cc(Br)ccc1F [5-(5-bromo-2-fluorophenyl)-N-(1-(3-fluoropyridin-2-yl)cyclobutyl)-1-methyl-1H-1,2,4-triazol-3-amine]"
3,D (D=>20 uM),O=C(Nc1ccn(-c2ccccc2)n1)C1(c2ncccc2F)CCC1 [1-(3-fluoropyridin-2-yl)-N-(1-phenyl-1H-pyrazol-3-yl)cyclobutanecarboxamide]
4,D (D=>20 uM),"Fc1cccnc1C1(CNc2nnc(-c3ccccc3)o2)CCC1 [N-((1-(3-fluoropyridin-2-yl)cyclobutyl)methyl)-5-phenyl-1,3,4-oxadiazol-2-amine]"
5,D (D=>20 uM),"Cn1nc(-c2cc(Br)ccc2F)nc1NC1(c2ncccc2F)CCC1 [5-(5-bromo-2-fluorophenyl)-N-(1-(3-fluoropyridin-2-yl)cyclobutyl)-2-methyl-2H-1,2,4-triazol-3-amine]"
